Rate data for 1 compound are collected here from US20260297542A1, “HERBICIDE RESISTANT PLANTS” (SYNGENTA CROP PROTECTION AG, priority 2023, published 2026).

Structures are written as SMILES. Changes are numbered by the printed parent chain.

In assay [1] the target is T1, His-TEV-AtPP01 ΔcTP (SEQ ID NO: 370) (Arabidopsis thaliana, UniProt P55826).
T1 construct: with cTPs removed; made in house; host or cells: E. coli BL21 (DE3), His GraviTrap, partially purified
T1 sequence (P55826 with tags, fused parts or gaps): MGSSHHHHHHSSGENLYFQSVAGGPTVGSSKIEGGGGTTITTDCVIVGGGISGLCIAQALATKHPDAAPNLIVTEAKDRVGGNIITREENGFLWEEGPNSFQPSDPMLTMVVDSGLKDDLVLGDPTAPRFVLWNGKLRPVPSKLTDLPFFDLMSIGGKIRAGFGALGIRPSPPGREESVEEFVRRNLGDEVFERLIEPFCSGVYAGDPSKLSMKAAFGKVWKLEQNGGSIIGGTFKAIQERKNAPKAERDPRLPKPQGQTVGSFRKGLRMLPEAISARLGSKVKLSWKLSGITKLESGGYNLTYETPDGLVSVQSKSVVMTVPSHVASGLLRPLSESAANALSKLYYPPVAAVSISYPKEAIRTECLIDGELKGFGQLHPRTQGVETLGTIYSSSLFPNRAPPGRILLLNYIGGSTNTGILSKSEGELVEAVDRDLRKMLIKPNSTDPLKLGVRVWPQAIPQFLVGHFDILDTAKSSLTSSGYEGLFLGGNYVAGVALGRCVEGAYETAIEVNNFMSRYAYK
In words: activity rate of PPO variant in in vitro assay. Format: biochemical. The note with it: role: substrate; 1 uM protoporphyrinogen IX; no inhibitor. The text has this: (§1) A pET24 plasmid containing a DNA sequence encoding variants of AtPPO1 derived from Arabidopsis thaliana with cTPs removed and both a 6×His tag and TEV protease cleavage tag added at the N-terminus, codon-optimised for expression in E. coli, and under control of a T7 promoter, was synthesised by Twist Bioscience. The following variants were synthesised: WT AtPPO1 (SEQ ID NO: 370), AtPPO1 L479M (SEQ ID NO: 371), AtPPO1 L479N (SEQ ID NO: 372), AtPPO1 S305L Y426V (SEQ ID NO: 374) and AtPPO1 S305L Y426V L479M (SEQ ID NO: 373). This plasmid was expressed in E. coli BL21 (DE3) with 50 μg/mL kanamycin selection. 10 mL of overnight cultures grown at 37° C. were used to inoculate 1 L AIM (AIM-Terrific Broth Base including Trace elements, Formedium) in 2 L shake flasks. Cultures were grown at 37° C., 200 rpm for 3 hours and then overnight at 26° C. Cells were harvested centrifugation. 5-15 g of cell pellet was lysed in and resuspended in ratio of 1:1.5 in lysis buffer (20 mM Tris pH8, 500 mM sodium chloride, 10% glycerol, 1× complete Protease EDTA-free Inhibitor Tablet (Roche), 10 mM imidazole). The resuspension was sonicated at 75% using 10 cycles of 30 seconds, 40 seconds off. After sonication Triton X-100 was added to the lysates at a final concentration of 0.5%. The lysates were centrifuged at 20,000 rpm for 25 min at 4° C. Cleared lysates were loaded on His GraviTrap (Cytiva) columns, washed with 20 mL of lysis buffer and eluted in elution buffer (20 mM Tris pH8, 500 mM sodium chloride, 10% glycerol, 200 mM imidazole, 0.03% (v/v) Triton X-100). The eluate was desalted on a PD10 column and 2.5-3.2 mL was collected. Protein concentration was measured and calculated using the absorbance at 280 nm. Extracts were diluted 1 in 4 and 10 uL was analysed by SDS PAGE.
(§2) Partially purified Protoporphyrinogen Oxidase enzymes were assayed for activity using fluorescence adapted from the method of Shepherd & Dailey (Anal Biochem. 2005 344(1) 115-121). The assay was performed in black 384 well plates with a clear bottom and the total volume of the reaction mixture was 91 ul. The final assay mixture contained 100 mM K2HPO4 pH7.2, 1 mM Na2EDTA, 5 mM DTT, 20% glycerol (v/v), 0.05% Tween 20 (v/v), 1.1% DMSO (v/v), 1 uM protoporphyrinogen IX and 1.5 nM enzyme. Compounds were dissolved in DMSO at 1 mM and a 4-fold serial dilution carried out to give 8 rates. 1 ul was added to the assay mixture. This gave final compound concentrations of 11, 2.7, 0.69, 0.17, 0.04, 0.01, 0.002, 0.0007 uM. Enzyme and inhibitor were preincubated for 5 minutes prior to starting the reaction with the addition of the substrate. […] IC50s were calculated using GraphPad Prism 7.05 nonlinear regression (Table 6). Each compound was tested in duplicate.

Assay [2] deals with T2, His-TEV-AtPP01 ΔcTP L479M (SEQ ID NO: 371) (Arabidopsis thaliana, UniProt P55826, L479M).
T2 construct: with cTPs removed; made in house; host or cells: E. coli BL21 (DE3), His GraviTrap, partially purified
T2 sequence (P55826 with tags, fused parts or gaps L479M): T1 sequence (P55826 with tags, fused parts or gaps) with L464M
Briefly: activity rate of PPO variant in in vitro assay. It is filed as biochemical. The note with it: role: substrate; 1 uM protoporphyrinogen IX; no inhibitor.
Excerpt: as §1, §2

For `C=Cc1c2[nH]c(c1C)Cc1[nH]c(c(CCC(=O)O)c1C)Cc1[nH]c(c(C)c1CCC(=O)O)Cc1[nH]c(c(C)c1C=C)C2` [protoporphyrinogen IX], the Rate in assay [1] was determined as 5.1 rfu second^−1 pmole^−1; in assay [2], 9.9 rfu second^−1 pmole^−1.
